# Legend:
# [1] = target: T1, metallo-β-lactamase NDM-1 (Klebsiella pneumoniae, UniProt C7C422); assay: meropenem hydrolysis kinetics, Lineweaver–Burk (spectrophotometric, […] nm); format: biochemical
# T1 construct: gene blaNDM-1; recombinant NDM-1, purified from the periplasmic fraction of E. coli BL21(DE3) (pET-NDM)
# [2] = target: T2, metallo-β-lactamase VIM-2 (Pseudomonas aeruginosa, UniProt Q9K2N0); assay: kinetic inhibition assay in periplasmic fractions (Figure S1); disk diffusion and MIC support; format: cell-based
# T2 construct: gene blaVIM-2; active mature VIM-2 in periplasmic fractions of P. aeruginosa strains B-730P/17 and B-2099/18
# T1 sequence (C7C422 29-270 limits assumed): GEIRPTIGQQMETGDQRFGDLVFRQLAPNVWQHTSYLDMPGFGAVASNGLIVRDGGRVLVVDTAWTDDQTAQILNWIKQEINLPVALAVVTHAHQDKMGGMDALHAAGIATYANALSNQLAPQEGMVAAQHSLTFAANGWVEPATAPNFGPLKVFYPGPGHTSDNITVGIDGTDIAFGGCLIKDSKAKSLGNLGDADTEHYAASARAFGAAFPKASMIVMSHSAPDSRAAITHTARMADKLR
smiles,measurement,setting,value
"O=S(=O)(O)CC(S)CS (centres unmarked) [compound 2, 2,3-dimercaptopropane-1-sulfonate]",Ki,[1],16.7 ± 1.2 µM
same,kinetic inhibition assay in periplasmic fractions (Figure S1); disk diffusion an,[2],A noticeable dose-dependent inhibitory effect of unithiol (Figure S1) was observed for the two strains studied

# From paper PMC8837113, “Drug Repurposing of the Unithiol: Inhibition of Metallo-β-Lactamases for the Treatment of Carbapenem-Resistant Gram-Negative Bacterial Infections” (International Journal of Molecular Sciences, 2022)
